15 compounds from ChEMBL document CHEMBL1129046, “Structure-activity relationships of the antimalarial agent artemisinin. 4. Effect of substitution at C-3” (1996) can be followed below.

The test system of test [1] is Plasmodium falciparum. Put plainly: Relative in vitro activity against drug-resistant Plasmodium falciparum D6. In kind it is functional.
Test [2] has as its system Plasmodium falciparum. Nature of the test: Relative in vitro activity against drug-resistant Plasmodium falciparum W-6. In kind it is functional.

Regarding `CC[C@@]12CC[C@H]3[C@H](C)CC[C@H]4CC(=O)O[C@H](O1)[C@]43OO2`, the results for the Relative activity with Plasmodium falciparum [1] and with Plasmodium falciparum [2] were 88 and 112, respectively.
For `CCCC[C@H]1C(=O)O[C@@H]2O[C@@]3(CC)CC[C@H]4[C@H](C)CC[C@@H]1[C@@]24OO3`, the Relative activity with Plasmodium falciparum [1] turned out to be 184; in the test with Plasmodium falciparum [2], 257.
Take `C[C@@H]1CC[C@H]2[C@@H](C)C(=O)O[C@@H]3O[C@@]4(C)CC[C@@H]1[C@]32OO4` [ARTEMISININ]: the Relative activity in the test with Plasmodium falciparum [1] and in the test with Plasmodium falciparum [2] was 100 throughout.
Consider `C[C@@H]1CC[C@H]2CC(=O)O[C@@H]3O[C@@]4(CCCCc5ccccc5)CC[C@@H]1[C@@]23OO4`, for which the Relative activity in the test on Plasmodium falciparum [1] is recorded as 220; with Plasmodium falciparum [2] it was 281.
The matching figures for `CCCC[C@H]1C(=O)O[C@@H]2O[C@@]3(CCC(=O)OCC)CC[C@H]4[C@H](C)CC[C@@H]1[C@@]24OO3`: 1382 and 2285.
On to `C[C@@H]1CC[C@H]2CC(=O)O[C@@H]3O[C@@]4(CCc5ccccc5)CC[C@@H]1[C@@]23OO4`, for which the Relative activity in the test with Plasmodium falciparum [1] worked out at 3; in the test with Plasmodium falciparum [2], 1.
Consider `CCOC(=O)CC[C@@]12CC[C@H]3[C@H](C)CC[C@H]4CC(=O)O[C@H](O1)[C@]43OO2`, for which the Relative activity in the test on Plasmodium falciparum [1] and in the test on Plasmodium falciparum [2] was 232 in each case.
Take `CCC[C@@]12CC[C@H]3[C@H](C)CC[C@H]4CC(=O)O[C@H](O1)[C@]43OO2`: the results for the Relative activity in the test on Plasmodium falciparum [1] and in the test with Plasmodium falciparum [2] were 2102 and 673, respectively.
The matching figures for `CCCC[C@H]1C(=O)O[C@@H]2O[C@@]3(CCc4ccccc4)CC[C@H]4[C@H](C)CC[C@@H]1[C@@]24OO3`: 1 and 1.
With `CCCC[C@H]1C(=O)O[C@@H]2O[C@@]3(CCCc4ccc(Cl)cc4)CC[C@H]4[C@H](C)CC[C@@H]1[C@@]24OO3`, the Relative activity is 43 in the test with Plasmodium falciparum [1] and 53 in the test with Plasmodium falciparum [2].
The matching figures for `CCCC[C@H]1C(=O)O[C@@H]2O[C@@]3(CCCC)CC[C@H]4[C@H](C)CC[C@@H]1[C@@]24OO3`: 28 and 33.
The matching figures for `C[C@@H]1CC[C@H]2CC(=O)O[C@@H]3O[C@@]4(CCCc5ccc(Cl)cc5)CC[C@@H]1[C@@]23OO4`: 114 and 127.
Consider `CCCC[C@@]12CC[C@H]3[C@H](C)CC[C@H]4CC(=O)O[C@H](O1)[C@]43OO2`, for which the results for the Relative activity with Plasmodium falciparum [1] and in the test with Plasmodium falciparum [2] were 20 and 18, respectively.
On the same counts, the results for `CC(C)C[C@@]12CC[C@H]3[C@H](C)CC[C@H]4CC(=O)O[C@H](O1)[C@]43OO2` are 53 and 45.
Consider `CCCC[C@H]1C(=O)O[C@@H]2O[C@@]3(CCCCc4ccccc4)CC[C@H]4[C@H](C)CC[C@@H]1[C@@]24OO3`, for which the Relative activity in the test with Plasmodium falciparum [1] came to 39; in the test with Plasmodium falciparum [2], 48.
